Data taken from the NIST ThermoML archive (doi:10.1007/s10765-011-0939-5).
Numbers after ± are expanded uncertainties.

Settings: Crystal; triple pt. cell

Row | Triple point temperature [K] | Structure (SMILES)
1 | 24.54 ± 8e-05 | [20Ne] [neon-20]
2 | 24.69 ± 8e-05 | [22Ne] [neon-22]
